Experimental data from patent US5242938A, “Derivatives of virginiamycin M1” (Merck & Co., Inc., priority 1992, dated 1993).
Converted amounts (≈) assume the structure as drawn. Like-named read-outs stand apart in the source and are kept apart here.

Assays:
[1] = system: Salmonella gallinarum (Mb 1287); assay: Agar diffusion disc assay, Salm 1287; type: cell-based; conditions: Salmonella enterica, GALLINARUM, 18 h, read-out: Inhibition zone diameter, Salm 1287
Description: (§1) Cultures employed in evaluating antimicrobial activity included plant pathogens, human and animal opportunistic pathogens and selected laboratory strains having specific-antibiotic sensitivities or chromosomal or R-plasmid-mediated resistances. […] The agar diffusion MIC's were determined using the method described by Barry in Anitbiotics in Laboratory Medicine, 2nd Ed., Ed. V. Lorian, pp. 1-63, William & Wilkins, Baltimore, 1986. Each test compound was dissolved in methanol to a concentration of 1 mg/ml. Serial dilutions of these compounds were also made to determine an agar diffusion MIC. 20 μl of each dilution was pipetted on to 6 mm paper discs, air dried and placed onto the surface of an agar plate seeded with the appropriate bacteria (~10^6 cfu). Seeded agar plates were incubated overnight (~18 hours) at 25° C. Zone sizes were measured to the nearest mm. Each compound was tested in triplicate and the results shown represent the mean.

[2] = target: T1, CCK-B (guinea pig cortex) (Cavia porcellus, UniProt H0VZC5); assay: [3H]L-365,260 CCK-B selective antagonist ligand binding, brain membranes; conditions: for IC50: read-out: CCK binding inhibition - IC50, [3H]L-365,260
T1 construct: guinea pig cortical preparations; from tissue; host or cells: guinea pig brain cortex membranes
T1 sequence (H0VZC5 1-426): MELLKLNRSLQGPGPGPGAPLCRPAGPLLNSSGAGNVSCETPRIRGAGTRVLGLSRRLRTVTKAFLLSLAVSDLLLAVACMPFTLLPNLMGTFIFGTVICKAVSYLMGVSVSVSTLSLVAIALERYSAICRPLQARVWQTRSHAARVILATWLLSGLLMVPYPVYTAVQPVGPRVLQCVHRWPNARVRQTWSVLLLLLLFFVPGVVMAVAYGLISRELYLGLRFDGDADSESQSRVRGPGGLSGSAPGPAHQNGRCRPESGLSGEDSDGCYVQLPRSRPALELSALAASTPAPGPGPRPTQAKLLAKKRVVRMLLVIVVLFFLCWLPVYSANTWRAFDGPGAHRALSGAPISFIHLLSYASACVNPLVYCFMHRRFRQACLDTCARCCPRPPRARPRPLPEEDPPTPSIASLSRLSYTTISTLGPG
Description: (§2) The resulting supernatant was re-spun at 20,000×g for 20 minutes. […] Incubations were for 40 minutes at 4° C. and were terminated by filtration and washing with ice cold 100 mM saline. […] Incubations were for 30 minutes at room temperature and were terminated by filtration over GF/C filters and washing with 100 mM NaCl.

[3] = system: Streptococcus agalactiae (Mb 2875); assay: Agar diffusion disc assay, Str 2875; type: cell-based; conditions: Streptococcus agalactiae, 18 h
Description: as §1

Bacillus sp. (Mb 633) = assay: Agar diffusion disc assay, Baci 633; type: cell-based; conditions: Bacillus, 18 h, @ 20 g/disc; read-out: Inhibition zone diameter, Baci 633
Description: as §1

[4] = system: Bacillus subtilis (Mb 964, ATCC 6633); assay: Agar diffusion disc assay, Subt 964; type: cell-based; conditions: Bacillus subtilis, ATCC6633, 18 h, read-out: Inhibition zone diameter, Subt 964
Description: as §1

[5] = system: Streptococcus faecium (Mb 2820); assay: Agar diffusion disc assay, Str 2820; type: cell-based; conditions: Enterococcus faecium, 18 h
Description: as §1

[6] = system: Micrococcus luteus (Mb 1101, ATCC 9341); assay: Agar diffusion disc assay, Micr 1101; type: cell-based
Description: as §1

[7] = target: T1, CCK-B (guinea pig cortex); assay: [125I]BHCCK-8 radioligand binding, guinea pig cortical preparation; conditions: read-out: CCK binding inhibition - IC50, [125I]BHCCK
Description: as §2

[8] = system: Escherichia coli (Mb 1418); assay: Agar diffusion disc assay, Coli 1418; type: cell-based; conditions: Escherichia coli, 18 h
Description: as §1

CCK-A (rat pancreas) [9] = target: T2, CCK-A (rat pancreas) (Rattus norvegicus, UniProt P30551); assay: [125I]BHCCK-8 radioligand binding, rat pancreatic preparation; conditions: read-out: CCK binding inhibition - IC50, [125I]BHCCK
T2 construct: from tissue; host or cells: rat pancreas
T2 sequence (P30551 1-444): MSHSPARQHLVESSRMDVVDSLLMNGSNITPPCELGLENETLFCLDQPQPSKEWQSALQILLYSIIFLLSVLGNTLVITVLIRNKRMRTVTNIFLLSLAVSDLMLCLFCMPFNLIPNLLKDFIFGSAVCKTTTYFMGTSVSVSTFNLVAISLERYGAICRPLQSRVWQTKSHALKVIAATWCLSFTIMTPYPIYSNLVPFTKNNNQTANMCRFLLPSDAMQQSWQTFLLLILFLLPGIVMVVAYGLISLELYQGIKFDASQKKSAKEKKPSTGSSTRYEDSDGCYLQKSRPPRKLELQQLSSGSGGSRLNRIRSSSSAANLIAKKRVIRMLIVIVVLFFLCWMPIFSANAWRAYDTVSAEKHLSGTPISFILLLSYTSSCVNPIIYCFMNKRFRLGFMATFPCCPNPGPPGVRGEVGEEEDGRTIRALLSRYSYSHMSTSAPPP
Description: as §2

[10] = system: En terobacter aergenes (Mb 835); assay: Agar diffusion disc assay, Ent 835; type: cell-based; conditions: 18 h, read-out: Inhibition zone diameter, Ent 835
Description: as §1

[11] = system: Staphylococcus aureus (Mb 108, ATCC 6538P); assay: Agar diffusion disc assay, Sta 108; type: cell-based; conditions: Staphylococcus aureus, ATCC6538P, 18 h
Description: as §1

[12] = system: Staphylococcus aureus (Mb 2983); assay: Agar diffusion disc assay, Sta 2983; type: cell-based; conditions: Staphylococcus aureus, 18 h
Description: as §1

[13] = system: Pseudomonas stutzeri (Mb 1231, ATCC 11607); assay: Agar diffusion disc assay, Pseu 1231; type: cell-based; conditions: Stutzerimonas stutzeri, ATCC11607, 18 h
Description: as §1

[14] = system: Corynebacterium pseudodiphtheriticum (Mb 261, ATCC 9742); assay: Agar diffusion disc assay, Cory 261; type: cell-based; conditions: Corynebacterium pseudodiphtheriticum, ATCC9742, 18 h
Description: as §1

CCK-A (rat pancreas) [15] = target: T2, CCK-A (rat pancreas); assay: [3H]L-364,718 CCK-A selective antagonist ligand binding, pancreas; conditions: read-out: CCK binding inhibition - IC50, [3H]L-364,718
Description: as §2

[16] = @ 20 g/disc, read-out: Inhibition zone diameter, Str 2875
[17] = @ 20 g/disc, read-out: Inhibition zone diameter, Str 2820
[18] = Micrococcus luteus, ATCC9341, 18 h; @ 20 g/disc; read-out: Inhibition zone diameter, Micr 1101
[19] = Micrococcus luteus, ATCC9341, 18 h; read-out: Agar Diffusion MIC versus Micrococcus luteus
[20] = Micrococcus luteus, ATCC9341; 10.0 μg/disc; 25° C., ~18 hours; read-out: Mean of triplicate zone size versus Micrococcus luteus
[21] = Micrococcus luteus, ATCC9341; 20.0 μg/disc; 25° C., ~18 hours; read-out: Mean of triplicate zone size versus Micrococcus luteus
[22] = @ 20 g/disc, read-out: Inhibition zone diameter, Coli 1418
[23] = @ 20 g/disc, read-out: Inhibition zone diameter, Sta 108
[24] = @ 20 g/disc, read-out: Inhibition zone diameter, Sta 2983
[25] = @ 20 g/disc, read-out: Inhibition zone diameter, Pseu 1231
[26] = @ 20 g/disc, read-out: Inhibition zone diameter, Cory 261

Compound | zone of inhibition at 20 µg/disc ([1]; @ 20 g/disc) | A.R. = agonist ratio = IC50([3H]L365,260)/IC50([125I]CCK) [2] | IC50 [2] | zone of inhibition at 20 µg/disc [3, 16] | zone of inhibition at 20 µg/disc (Bacillus sp. (Mb 633)) | zone of inhibition at 20 µg/disc ([4]; @ 20 g/disc) | zone of inhibition at 20 µg/disc [5, 17] | zone of inhibition at 20 µg/disc [6, 18] | MIC [6, 19] | zone of inhibition at 10 µg/disc [6, 20] | zone of inhibition at 20 µg/disc [6, 21] | IC50 [7] | zone of inhibition at 20 µg/disc [8, 22] | IC50 (CCK-A (rat pancreas) [9]) | zone of inhibition at 20 µg/disc ([10]; @ 20 g/disc) | zone of inhibition at 20 µg/disc [11, 23] | zone of inhibition at 20 µg/disc [12, 24] | zone of inhibition at 20 µg/disc [13, 25] | zone of inhibition at 20 µg/disc [14, 26] | IC50 (CCK-A (rat pancreas) [15]) | also measured
CC1=C\[C@@H](OC(=O)Nc2ccc([N+](=O)[O-])cc2)CC(=O)Cc2nc(co2)C(=O)N2CCC=C2C(=O)O[C@H](C(C)C)[C@H](C)/C=C/C(=O)NC\C=C\1 [Example 10] | 0 mm | 8.7 | 13.1 µM | 0 mm | 0 mm | 0 mm | 0 mm | 13 mm | 3.94 µM (≈ 2.72 µg/mL) | 10 mm | 12 mm | 1.6 µM | 0 mm | > 3 µM | 0 mm | 9 mm | 0 mm | 0 mm | 9 mm | > 3 µM | zone of inhibition at 5 µg/disc ([6]; Micrococcus luteus, ATCC9341; 5.00 μg/disc; 25° C., ~18 hours; read-out: Mean of triplicate zone size versus Micrococcus luteus): 7 mm
CC1=C\[C@@H](OC(=O)Nc2cccc([N+](=O)[O-])c2)CC(=O)Cc2nc(co2)C(=O)N2CCC=C2C(=O)O[C@H](C(C)C)[C@H](C)/C=C/C(=O)NC\C=C\1 [Example 9] | 0 mm | 12.9 | 5.2 µM | 0 mm | 0 mm | 0 mm | 0 mm | 8 mm | 0.82 µM (≈ 0.566 µg/mL) | 8 mm | 9 mm | 0.4 µM | 0 mm | > 3 µM | 0 mm | 0 mm | 0 mm | 0 mm | 0 mm | > 3 µM | zone of inhibition at 40 µg/disc ([6]; Micrococcus luteus, ATCC9341; 40.0 μg/disc; 25° C., ~18 hours; read-out: Mean of triplicate zone size versus Micrococcus luteus): 10 mm; zone of inhibition at 80 µg/disc ([6]; Micrococcus luteus, ATCC9341; 80.0 μg/disc; 25° C., ~18 hours; read-out: Mean of triplicate zone size versus Micrococcus luteus): 11 mm; zone of inhibition at 160 µg/disc ([6]; Micrococcus luteus, ATCC9341; 160 μg/disc; 25° C., ~18 hours; read-out: Mean of triplicate zone size versus Micrococcus luteus): 11 mm
CC1=C\[C@@H](OC(=O)Cc2ccccc2)CC(=O)Cc2nc(co2)C(=O)N2CCC=C2C(=O)O[C@H](C(C)C)[C@H](C)/C=C/C(=O)NC\C=C\1 [Example 5] | – | ~ 10 | > 3 µM | – | 0 mm | – | – | – | – | – | – | 0.6 µM | – | > 3 µM | – | – | – | – | – | > 3 µM | zone of inhibition at 20 µg/disc [1]: 0 mm; percentage in parentheses beside >3.0, [3H]L-365,260 (inhibition at top concentration, not defined) ([2]; beside IC50 >3.0): 40%; zone of inhibition at 20 µg/disc ([3]; read-out: Inhibition zone diameter, Str 2875, @ 20 g/disc): 0 mm; zone of inhibition at 20 µg/disc [4]: 0 mm; zone of inhibition at 20 µg/disc ([5]; read-out: Inhibition zone diameter, Str 2820, @ 20 g/disc): 0 mm; MIC ([6]; Micrococcus luteus, ATCC9341, 18 h, read-out: Agar Diffusion MIC versus Micrococcus luteus): 0.41 µM (≈ 0.264 µg/mL); zone of inhibition at 20 µg/disc ([6]; Micrococcus luteus, ATCC9341, 18 h, read-out: Inhibition zone diameter, Micr 1101, @ 20 g/disc): 12 mm; zone of inhibition at 5 µg/disc ([6]; Micrococcus luteus, ATCC9341, 18 h, read-out: Mean of triplicate zone size versus Micrococcus luteus, 5.00 μg/disc; 25° C., ~18 hours): 10 mm; zone of inhibition at 20 µg/disc ([6]; Micrococcus luteus, ATCC9341, 18 h, read-out: Mean of triplicate zone size versus Micrococcus luteus, 20.0 μg/disc; 25° C., ~18 hours): 13 mm; zone of inhibition at 40 µg/disc ([6]; Micrococcus luteus, ATCC9341, 18 h, read-out: Mean of triplicate zone size versus Micrococcus luteus, 40.0 μg/disc; 25° C., ~18 hours): 14 mm; zone of inhibition at 80 µg/disc ([6]; Micrococcus luteus, ATCC9341, 18 h, read-out: Mean of triplicate zone size versus Micrococcus luteus, 80.0 μg/disc; 25° C., ~18 hours): 14 mm; zone of inhibition at 20 µg/disc ([8]; read-out: Inhibition zone diameter, Coli 1418, @ 20 g/disc): 0 mm; zone of inhibition at 20 µg/disc [10]: 0 mm; zone of inhibition at 20 µg/disc ([11]; read-out: Inhibition zone diameter, Sta 108, @ 20 g/disc): 0 mm; zone of inhibition at 20 µg/disc ([12]; read-out: Inhibition zone diameter, Sta 2983, @ 20 g/disc): 0 mm; zone of inhibition at 20 µg/disc ([13]; read-out: Inhibition zone diameter, Pseu 1231, @ 20 g/disc): 0 mm; zone of inhibition at 20 µg/disc ([14]; read-out: Inhibition zone diameter, Cory 261, @ 20 g/disc): 0 mm
